Data reported in patent publication US10576062B2, “Carbamoyloxymethyl triazole cyclohexyl acids as LPA antagonists” (Bristol-Myers Squibb Company, priority 2016, dated 2020).

target: T1, human LPA1 (Homo sapiens, UniProt Q92633); test: LPA1 functional antagonist assay (LPA-induced calcium flux); type: cell-based; details: CHO cells overexpressing human LPA1; inhibition of calcium flux induced by 10 nM LPA; read-out: hLPA1 IC50
T1 construct: expressed in transfected cells; host or cells: Chinese hamster ovary (CHO) cells
T1 sequence (Q92633 whole entry): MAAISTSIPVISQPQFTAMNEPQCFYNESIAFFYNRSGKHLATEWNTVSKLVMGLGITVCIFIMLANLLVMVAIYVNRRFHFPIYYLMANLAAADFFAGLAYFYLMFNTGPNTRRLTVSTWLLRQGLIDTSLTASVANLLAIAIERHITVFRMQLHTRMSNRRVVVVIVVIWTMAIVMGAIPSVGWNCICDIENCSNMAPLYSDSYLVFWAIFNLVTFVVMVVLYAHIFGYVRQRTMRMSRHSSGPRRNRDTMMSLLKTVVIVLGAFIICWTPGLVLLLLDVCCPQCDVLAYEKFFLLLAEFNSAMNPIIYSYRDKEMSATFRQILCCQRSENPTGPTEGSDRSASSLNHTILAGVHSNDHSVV
Procedure, shortened: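 CHO cells overexpressing human LPA1, loaded with calcium dye 30 min at 37° C, were preincubated 20 min at room temperature with compound (0.08 nM–5 μM, 0.5% DMSO) in HBSS/20 mM HEPES/0.1% fatty acid-free BSA.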

Row | Structure (SMILES) | IC50 [µM]
1 | CCc1nc(-c2nnn(C)c2COC(=O)N(C)C2CCCC2)ccc1O[C@H]1CCC[C@H](C(=O)O)C1 [Example 195, (1S,3S)-3-((6-(5-(((cyclopentyl(methyl)carbamoyl)oxy)methyl)-1-methyl-1H-1,2,3-triazol-4-yl)-2-ethylpyridin-3-yl)oxy)cyclohexane-1-carboxylic acid] | 0.011
2 | CCc1nc(-c2nnn(C)c2COC(=O)N(C)CC(C)C)ccc1O[C@H]1CCC[C@H](C(=O)O)C1 [Example 197, (1S,3S)-3-((2-ethyl-6-(5-(((isobutyl(methyl)carbamoyl)oxy)methyl)-1-methyl-1H-1,2,3-triazol-4-yl)pyridin-3-yl)oxy)cyclohexane-1-carboxylic acid] | 0.027
3 | CCc1nc(-c2nnn(C)c2COC(=O)NCc2ccccc2)ccc1O[C@H]1CCC[C@H](C(=O)O)C1 [Example 198, (1S,3S)-3-((6-(5-(((benzylcarbamoyl)oxy)methyl)-1-methyl-1H-1,2,3-triazol-4-yl)-2-ethylpyridin-3-yl)oxy)cyclohexane-1-carboxylic acid] | 0.046
4 | CCCN(C)C(=O)OCc1c(-c2ccc(O[C@H]3CCC[C@H](C(=O)O)C3)c(CC)n2)nnn1C [Example 200, (1S,3S)-3-((2-ethyl-6-(1-methyl-5-(((methyl(propyl)carbamoyl)oxy)methyl)-1H-1,2,3-triazol-4-yl)pyridin-3-yl)oxy)cyclohexane-1-carboxylic acid] | 0.011
5 | CCc1nc(-c2nnn(C)c2COC(=O)N(C)Cc2ccccc2)ccc1O[C@H]1CCC[C@H](C(=O)O)C1 [Example 201, (1S,3S)-3-((6-(5-(((benzyl(methyl)carbamoyl)oxy)methyl)-1-methyl-1H-1,2,3-triazol-4-yl)-2-ethylpyridin-3-yl)oxy)cyclohexane-1-carboxylic acid] | 0.025
6 | CCc1nc(-c2nnn(C)c2COC(=O)N(C)CC)ccc1O[C@H]1CCC[C@H](C(=O)O)C1 [Example 202, (1S,3S)-3-((2-ethyl-6-(5-(((ethyl(methyl)carbamoyl)oxy)methyl)-1-methyl-1H-1,2,3-triazol-4-yl)pyridin-3-yl)oxy)cyclohexane-1-carboxylic acid] | 0.16
7 | CCc1nc(-c2nnn(C)c2COC(=O)N2CC(C)(C)C2)ccc1O[C@H]1CCC[C@H](C(=O)O)C1 [Example 204, (1S,3S)-3-((6-(5-(((3,3-dimethylazetidine-1-carbonyl)oxy)methyl)-1-methyl-1H-1,2,3-triazol-4-yl)-2-ethylpyridin-3-yl)oxy)cyclohexane-1-carboxylic acid] | 0.102
8 | CCc1nc(-c2nnn(C)c2COC(=O)NC23CC(C2)C3)ccc1O[C@H]1CCC[C@H](C(=O)O)C1 [Example 205, (1S,3S)-3-((6-(5-(((bicyclo[1.1.1]pentan-1-ylcarbamoyl)oxy)methyl)-1-methyl-1H-1,2,3-triazol-4-yl)-2-ethylpyridin-3-yl)oxy)cyclohexane-1-carboxylic acid] | 0.842
9 | CCc1nc(-c2nnn(C)c2COC(=O)N(C)C23CC(C2)C3)ccc1O[C@H]1CCC[C@H](C(=O)O)C1 [Example 206, (1S,3S)-3-((6-(5-(((bicyclo[1.1.1]pentan-1-yl(methyl)carbamoyl)oxy)methyl)-1-methyl-1H-1,2,3-triazol-4-yl)-2-ethylpyridin-3-yl)oxy)cyclohexane-1-carboxylic acid] | 0.034
10 | CCc1nc(-c2nnn(C)c2COC(=O)N(C)CCC2CC2)ccc1O[C@H]1CCC[C@H](C(=O)O)C1 [Example 209, (1S,3S)-3-((6-(5-((((2-cyclopropylethyl)(methyl)carbamoyl)oxy)methyl)-1-methyl-1H-1,2,3-triazol-4-yl)-2-ethylpyridin-3-yl)oxy)cyclohexane-1-carboxylic acid] | 0.022
11 | CCc1nc(-c2nnn(C)c2COC(=O)N2CC3(CCC3)C2)ccc1O[C@H]1CCC[C@H](C(=O)O)C1 [Example 210, (1S,3S)-3-((6-(5-(((2-azaspiro[3.3]heptane-2-carbonyl)oxy)methyl)-1-methyl-1H-1,2,3-triazol-4-yl)-2-ethylpyridin-3-yl)oxy)cyclohexane-1-carboxylic acid] | 0.067
12 | CCc1nc(-c2nnn(C)c2COC(=O)N2CCC3(CC3)C2)ccc1O[C@H]1CCC[C@H](C(=O)O)C1 [Example 211, (1S,3S)-3-((6-(5-(((5-azaspiro[2.4]heptane-5-carbonyl)oxy)methyl)-1-methyl-1H-1,2,3-triazol-4-yl)-2-ethylpyridin-3-yl)oxy)cyclohexane-1-carboxylic acid] | 0.047

The next lines start with the values.

Row | IC50 [µM] | Structure (SMILES)
13 | 0.014 | CCc1nc(-c2nnn(C)c2COC(=O)N(C)CC2CC2)ccc1O[C@H]1CCC[C@H](C(=O)O)C1 [Example 194, (1S,3S)-3-((6-(5-((((cyclopropylmethyl)(methyl)carbamoyl)oxy)methyl)-1-methyl-1H-1,2,3-triazol-4-yl)-2-ethylpyridin-3-yl)oxy)cyclohexane-1-carboxylic acid]
14 | 0.007 | CCCCN(C)C(=O)OCc1c(-c2ccc(O[C@H]3CCC[C@H](C(=O)O)C3)c(CC)n2)nnn1C [Example 199, (1S,3S)-3-((6-(5-(((butyl(methyl)carbamoyl)oxy)methyl)-1-methyl-1H-1,2,3-triazol-4-yl)-2-ethylpyridin-3-yl)oxy)cyclohexane-1-carboxylic acid]
15 | 0.008 | CCc1nc(-c2nnn(C)c2COC(=O)N(C)C2CCC2)ccc1O[C@H]1CCC[C@H](C(=O)O)C1 [Example 203, (1S,3S)-3-((6-(5-(((cyclobutyl(methyl)carbamoyl)oxy)methyl)-1-methyl-1H-1,2,3-triazol-4-yl)-2-ethylpyridin-3-yl)oxy)cyclohexane-1-carboxylic acid]
16 | 0.133 | CCCC1(N(C)C(=O)OCc2c(-c3ccc(O[C@H]4CCC[C@H](C(=O)O)C4)c(CC)n3)nnn2C)CC1 [Example 207, (1S,3S)-3-((2-ethyl-6-(1-methyl-5-(((methyl(1-propylcyclopropyl)carbamoyl)oxy)methyl)-1H-1,2,3-triazol-4-yl)pyridin-3-yl)oxy)cyclohexane-1-carboxylic acid]
17 | 0.026 | CCc1nc(-c2nnn(C)c2COC(=O)N(C)CCC(C)C)ccc1O[C@H]1CCC[C@H](C(=O)O)C1 [Example 208, (1S,3S)-3-((2-ethyl-6-(5-(((isopentyl(methyl)carbamoyl)oxy)methyl)-1-methyl-1H-1,2,3-triazol-4-yl)pyridin-3-yl)oxy)cyclohexane-1-carboxylic acid]
18 | 0.04 | CCCCN(C)C(=O)OCc1c(-c2cnc(O[C@H]3CCC[C@H](C(=O)O)C3)cn2)nnn1C [Example 212, (1S,3S)-3-((5-(5-(((butyl(methyl)carbamoyl)oxy)methyl)-1-methyl-1H-1,2,3-triazol-4-yl)pyrazin-2-yl)oxy)cyclohexane-1-carboxylic acid]
19 | 1.07 | CN(CC1CC1)C(=O)OCc1c(-c2cnc(O[C@H]3CCC[C@H](C(=O)O)C3)cn2)nnn1C [Example 213, (1S,3S)-3-((5-(5-((((cyclopropylmethyl)(methyl)carbamoyl)oxy)methyl)-1-methyl-1H-1,2,3-triazol-4-yl)pyrazin-2-yl)oxy)cyclohexane-1-carboxylic acid]
20 | 0.068 | CN(CC1CCC1)C(=O)OCc1c(-c2cnc(O[C@H]3CCC[C@H](C(=O)O)C3)cn2)nnn1C [Example 214, (1S,3S)-3-((5-(5-((((cyclobutylmethyl)(methyl)carbamoyl)oxy)methyl)-1-methyl-1H-1,2,3-triazol-4-yl)pyrazin-2-yl)oxy)cyclohexane-1-carboxylic acid]
21 | 0.084 | CN(C(=O)OCc1c(-c2cnc(O[C@H]3CCC[C@H](C(=O)O)C3)cn2)nnn1C)C1CCCC1 [Example 215, (1S,3S)-3-((5-(5-(((cyclopentyl(methyl)carbamoyl)oxy)methyl)-1-methyl-1H-1,2,3-triazol-4-yl)pyrazin-2-yl)oxy)cyclohexane-1-carboxylic acid]

same assay, conditions: human LPA1; read-out: hLPA1 IC50

Row | Structure (SMILES) | IC50 [µM]
22 | CN(CCC(C)(C)F)C(=O)OCc1c(-c2ccc(O[C@H]3CCC[C@H](C(=O)O)C3)cn2)nnn1C [Example 188, (1S,3S)-3-((6-(5-((((3-fluoro-3-methylbutyl)(methyl)carbamoyl)oxy)methyl)-1-methyl-1H-1,2,3-triazol-4-yl)pyridin-3-yl)oxy)cyclohexane-1-carboxylic acid] | 0.032
23 | Cc1nc(-c2nnn(C)c2COC(=O)N(C)CCCF)ccc1O[C@H]1CCC[C@H](C(=O)O)C1 [Example 190, (1S,3S)-3-((6-(5-((((3-fluoropropyl)(methyl)carbamoyl)oxy)methyl)-1-methyl-1H-1,2,3-triazol-4-yl)-2-methylpyridin-3-yl)oxy)cyclohexane-1-carboxylic acid] | 0.081
24 | Cc1nc(-c2nnn(C)c2COC(=O)N(C)CCCCF)ccc1O[C@H]1CCC[C@H](C(=O)O)C1 [Example 192, (1S,3S)-3-((6-(5-((((4-fluorobutyl)(methyl)carbamoyl)oxy)methyl)-1-methyl-1H-1,2,3-triazol-4-yl)-2-methylpyridin-3-yl)oxy)cyclohexane-1-carboxylic acid] | 0.036

Next, values leading:

Row | IC50 [µM] | Structure (SMILES)
25 | 0.12 | Cc1nc(-c2nnn(C)c2COC(=O)N(C)CC2(F)CCC2)ccc1O[C@H]1CCC[C@H](C(=O)O)C1 [Example 189, (1S,3S)-3-((6-(5-(((((1-fluorocyclobutyl)methyl)(methyl)carbamoyl)oxy)methyl)-1-methyl-1H-1,2,3-triazol-4-yl)-2-methylpyridin-3-yl)oxy)cyclohexane-1-carboxylic acid]
26 | 0.553 | Cc1nc(-c2nnn(C)c2COC(=O)NCCCCF)ccc1O[C@H]1CCC[C@H](C(=O)O)C1 [Example 191, (1S,3S)-3-((6-(5-((((4-fluorobutyl)carbamoyl)oxy)methyl)-1-methyl-1H-1,2,3-triazol-4-yl)-2-methylpyridin-3-yl)oxy)cyclohexane-1-carboxylic acid]
27 | 1.7 | CCCN(C)C(=O)OCc1c(-c2ccc(O[C@@H]3CCC[C@@H](C(=O)O)C3)c(C)n2)nnn1C [Example 193, (1R,3R)-3-((2-methyl-6-(1-methyl-5-(((methyl(propyl)carbamoyl)oxy)methyl)-1H-1,2,3-triazol-4-yl)pyridin-3-yl)oxy)cyclohexane-1-carboxylic acid]
